Test results reported in the supplement of paper PMC6723410.

Experiments:
GUMC-403 [1] = assay: AC50 for reduction of cell viability; higher = less potent; settings: library / dose series: NPC library, 8-point 1:5 dilution; 48 h
GUMC-403 [2] = assay: viability at highest tested concentration (max response) relative to DMSO (% of DMSO control); higher = less cytotoxic; settings: library / dose series: MIPE library, 11-point 1:3 dilution, 48 h
In short: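 Patient-derived GUMC-403 papilloma cells grown by conditional reprogramming were plated at 700/well in 5 μL F + Y medium in 1536-well plates and incubated overnight at 37 °C. They then received 23 nL of MIPE 4.0 compounds by pin tool (11-point 1:3 series) for 48 h. CellTiter-Glo luminescence was read on a ViewLux and normalised with DMSO wells as 100% and empty wells as 0%. The value is viability at the highest tested concentration relative to DMSO control.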

Row | Compound | viability (GUMC-403 [2]; top concentration 46.1 µM) | other results
1 | N=C(N/N=C\c1ccc(Cl)cc1)N/N=C/c1ccc(Cl)cc1 | – | AC50 for reduction of cell viability (GUMC-403 [1]): 8.41 µM
2 | Cc1cc(N)c2cc(NC(=O)Nc3ccc4nc(C)cc(N)c4c3)ccc2n1.Cl.Cl | – | AC50 for reduction of cell viability (GUMC-403 [1]): 3.76 µM
3 | NC[C@H]1O[C@H](O[C@H]2[C@H](O)[C@@H](O[C@H]3O[C@H](CO)[C@@H](O)[C@H](N)[C@H]3O)[C@H](N)C[C@@H]2N)[C@H](N)C[C@@H]1O | 125 | –
4 | C=C1C(=O)O[C@@H]2[C@H]3O[C@]3(C)CC/C=C(\C)CC[C@@H]12 | 108 | –
5 | O=C(C1CCCCC1)N1CC(=O)N2CCc3ccccc3C2C1 (stereo unspecified) | 109 | –
6 | Clc1cccc(-n2nnnc2NCc2ccccc2Oc2ccccn2)c1Cl | 116 | –
7 | O=C(O)c1cc(O)c2c(c1)C(=O)c1cccc(O)c1C2=O | – | viability (GUMC-403 [2]; top concentration 92.2 µM): 110
8 | C[C@H](NC(=O)Cc1cc(F)cc(F)c1)C(=O)N[C@H](C(=O)OC(C)(C)C)c1ccccc1 | 79.4 | –
9 | CN(C)CCc1c[nH]c2ccc(C[S+](=O)([O-])N3CCCC3)cc12 | 78.5 | –
10 | C[C@]12CCC\3=C\4CCC(=O)\C=C4CC[C@H]3[C@@H]1CC[C@@]2(O)CC#N | 122 | –
11 | CC(C)(C(=O)NCC(F)(F)C(F)(F)F)C(=O)N[C@@H]1C(=O)Nc2ccccc2-c2ccccc21 | 88.8 | –
12 | CC(C)(C)C(=O)Oc1ccc([S+](=O)([O-])Nc2ccccc2C(=O)NCC(=O)O)cc1 | 113 | –
13 | ClC1=CC(=CC=C1)N2CCN(CCCN3\N=C4\C=C/C=C\N4C3=O)CC2 | 103 | –
14 | O=C(Nc1ccccc1-c1cn2c(CN3CCNCC3)csc2n1)c1cnc2ccccc2n1 | 81.3 | –
15 | CC(C)Nc1cc(C(F)(F)F)cc2nc(NC(=O)c3cccnc3)nn12 | 113 | –
16 | Cc1cccc(-c2[nH]c(C(C)(C)C)nc2-c2ccc3nccnc3c2)n1 | 140 | –
17 | Nc1cc(c(cc1S(=O)(N)=O)S(N)(=O)=O)C(/Cl)=C(/Cl)Cl | 105 | –
18 | C[C@]12CCC(=O)C=C1CC[C@@H]1[C@@H]2CC[C@@]2(C)[C@H]1CC[C@]2(C)O | – | viability (GUMC-403 [2]; top concentration 92.2 µM): 128
19 | CCc1cccc2c3c([nH]c12)C(CC)(CC(=O)O)OCC3 (stereo unspecified) | 132 | –
20 | Clc1ccc(C(Cn2ccnc2)OCc2c(Cl)cccc2Cl)c(Cl)c1 (stereo unspecified) | 113 | –
21 | CO[C@@H]1[C@@H](O)[C@H](O)[C@@H](n2c3c(Cl)cccc3c3c4c(c5c6cccc(Cl)c6[nH]c5c32)C(=O)NC4=O)O[C@H]1CO | 112 | –

Row | Compound | viability (GUMC-403 [2]; top concentration 46.1 µM) | other results
22 | CCC(C)N(C)C(=O)c1cc2ccccc2c(-c2ccccc2Cl)n1 (stereo unspecified) | 96.7 | –
23 | C/C=C(/C(=C/C)c1ccc(O)cc1)c1ccc(O)cc1 | 89.2 | –
24 | CN(C)CCN(Cc1ccc(Cl)cc1)c1ccccn1.Cl | 97.6 | –
25 | C[N+](C)([O-])CCNc1ccc(NCC[N+](C)(C)[O-])c2c1C(=O)c1c(O)ccc(O)c1C2=O | 104 | –
26 | COc1cc2c(N3CCN(C(=O)Nc4ccc(OC(C)C)cc4)CC3)ncnc2cc1OCCCN1CCCCC1 | 109 | –
27 | CC[C@H](NC(=O)[C@H](C)NC)C(=O)N1C[C@@H](O)C[C@H]1Cc1c(-c2[nH]c3cc(F)ccc3c2C[C@@H]2C[C@H](O)CN2C(=O)[C@H](CC)NC(=O)[C@H](C)NC)[nH]c2cc(F)ccc12 | 108 | –
28 | COc1cc(/C=C/C(=O)CC(=O)/C=C/c2ccc(O)c(OC)c2)ccc1O | – | viability (GUMC-403 [2]; top concentration 92.2 µM): 94.4
29 | Cc1cc(OCCCc2c(C(=O)O)n(Cc3cccnc3)c3c(-c4c(COc5ccc(N6CCN([S+](C)(=O)[O-])CC6)cc5)nn(C)c4C)cccc23)cc(C)c1Cl | 105 | –
30 | C#CCC(Cc1cnc2nc(N)nc(N)c2n1)c1ccc(C(=O)N[C@@H](CCC(=O)O)C(=O)O)cc1 (stereo partly specified) | 95.2 | –
31 | C[C@@H](O)[C@@H]1[C@H]2[C@@H](C)\C(=C(/N2C1=O)C(=O)OCOC(=O)C(C)(C)C)SC3CN(C3)/C4=N/CCS4 | 78.1 | –
32 | CC(C)[C@H]1C(=O)N[C@H](CO)Cc2c[nH]c3cccc(c23)N1C | 107 | –
33 | O=C(O)C(=O)c1cn(Cc2ccccc2)c2ccc(-c3ccc(OC(F)(F)F)cc3)cc12 | 111 | –
34 | C[C@]12C[C@H](O)[C@H]3[C@@H](CC\C4=C\C(=O)\C=C/[C@]34C)[C@@H]1CC[C@]2(O)C(=O)CO | 118 | –
35 | CNCCCC12CCC(c3ccccc31)c1ccccc12 | 105 | –
36 | Cc1ccc(C)c(OCCCC(C)(C)C(=O)O)c1 | 108 | –
37 | O=C(c1ccccc1)c1ccc2n1CCC2C(=O)O (stereo unspecified) | 75.8 | –
38 | CN(C)CC[C@H](CSc1ccccc1)Nc1ccc([S+](=O)([O-])NC(=O)c2ccc(N3CCN(Cc4ccccc4-c4ccc(Cl)cc4)CC3)cc2)cc1[N+](=O)[O-] | 114 | –
39 | C=CC[N+]1([C@H]2C[C@H]3[C@@H]4CC[C@H]5C[C@H](O)[C@@H](N6CCOCC6)C[C@]5(C)[C@H]4CC[C@]3(C)[C@H]2OC(C)=O)CCCC1 | 108 | –
40 | Nc1n[nH]c2nnc(-c3c(-c4ccccc4)nn4ccccc34)cc12 | 88.7 | –
41 | CCc1ccc(/C=C2/SC(=S)NC2=O)cc1 | 106 | –
